# Data from PubChem BioAssay (NCI).
#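 Results reflect a 48-hour exposure of cells in 96-well plates to compound at five concentrations. TGI: total growth inhibition.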
# Experiments:
# Test in all cases: NCI anticancer screen, dose series, 48 h
# 786-0 renal = tested on: 786-0 renal
# A498 renal = tested on: A498 renal
# A549 NSCLC = tested on: A549 NSCLC
# ACHN renal = tested on: ACHN renal
# CAKI-1 renal = tested on: CAKI-1 renal
# CCRF-CEM leukemia = tested on: CCRF-CEM leukemia
# COLO 205 colon = tested on: COLO 205 colon
# DLD-1 colon = tested on: DLD-1 colon
# DMS 114 small cell lung = tested on: DMS 114 small cell lung
# DMS 273 small cell lung = tested on: DMS 273 small cell lung
# EKVX NSCLC = tested on: EKVX NSCLC
# HCC-2998 colon = tested on: HCC-2998 colon
# HCT-116 colon = tested on: HCT-116 colon
# HCT-15 colon = tested on: HCT-15 colon
# HL-60(TB) leukemia = tested on: HL-60(TB) leukemia
# HOP-18 NSCLC = tested on: HOP-18 NSCLC
# HOP-62 NSCLC = tested on: HOP-62 NSCLC
# HOP-92 NSCLC = tested on: HOP-92 NSCLC
# HT29 colon = tested on: HT29 colon
# IGROV1 ovarian = tested on: IGROV1 ovarian
# K-562 leukemia = tested on: K-562 leukemia
# KM12 colon = tested on: KM12 colon
# KM20L2 colon = tested on: KM20L2 colon
# LOX IMVI melanoma = tested on: LOX IMVI melanoma
# LXFL 529 NSCLC = tested on: LXFL 529 NSCLC
# M14 melanoma = tested on: M14 melanoma
# M19-MEL melanoma = tested on: M19-MEL melanoma
# MALME-3M melanoma = tested on: MALME-3M melanoma
# MOLT-4 leukemia = tested on: MOLT-4 leukemia
# NCI-H226 lung = tested on: NCI-H226 lung
# NCI-H23 lung = tested on: NCI-H23 lung
# NCI-H460 lung = tested on: NCI-H460 lung
# NCI-H522 lung = tested on: NCI-H522 lung
# OVCAR-3 ovarian = tested on: OVCAR-3 ovarian
# OVCAR-4 ovarian = tested on: OVCAR-4 ovarian
# OVCAR-5 ovarian = tested on: OVCAR-5 ovarian
# OVCAR-8 ovarian = tested on: OVCAR-8 ovarian
# RPMI-8226 leukemia = tested on: RPMI-8226 leukemia
# RXF 393 renal = tested on: RXF 393 renal
# RXF-631 renal = tested on: RXF-631 renal
# SF-268 CNS = tested on: SF-268 CNS
# SF-295 CNS = tested on: SF-295 CNS
# SF-539 CNS = tested on: SF-539 CNS
# SK-MEL-2 melanoma = tested on: SK-MEL-2 melanoma
# SK-MEL-28 melanoma = tested on: SK-MEL-28 melanoma
# SK-MEL-5 melanoma = tested on: SK-MEL-5 melanoma
# SK-OV-3 ovarian = tested on: SK-OV-3 ovarian
# SN12C renal = tested on: SN12C renal
# SNB-19 CNS = tested on: SNB-19 CNS
# SNB-75 CNS = tested on: SNB-75 CNS
# SNB-78 CNS = tested on: SNB-78 CNS
# SR leukemia = tested on: SR leukemia
# SW-620 colon = tested on: SW-620 colon
# TK-10 renal = tested on: TK-10 renal
# U251 CNS = tested on: U251 CNS
# UACC-257 melanoma = tested on: UACC-257 melanoma
# UACC-62 melanoma = tested on: UACC-62 melanoma
# UO-31 renal = tested on: UO-31 renal
# XF 498 CNS = tested on: XF 498 CNS
smiles,measurement,setting,value
Cc1c(NC(=O)C(=O)N=NC(=O)c2ccncc2)c(O)c2ccccc2c1O,TGI,786-0 renal,59.2 µM
same,TGI,A498 renal,43.5 µM
same,TGI,A549 NSCLC,30.2 µM
same,TGI,ACHN renal,29.6 µM
same,TGI,CAKI-1 renal,57 µM
same,TGI,CCRF-CEM leukemia,> 87 µM
same,TGI,COLO 205 colon,32.3 µM
same,TGI,DLD-1 colon,31.6 µM
same,TGI,DMS 114 small cell lung,15.3 µM
same,TGI,DMS 273 small cell lung,23.2 µM
same,TGI,EKVX NSCLC,19.9 µM
same,TGI,HCC-2998 colon,30.7 µM
same,TGI,HCT-116 colon,30.1 µM
same,TGI,HCT-15 colon,26.9 µM
same,TGI,HL-60(TB) leukemia,> 67.5 µM
same,TGI,HOP-18 NSCLC,22.3 µM
same,TGI,HOP-62 NSCLC,40.7 µM
same,TGI,HOP-92 NSCLC,33.5 µM
same,TGI,HT29 colon,44.9 µM
same,TGI,IGROV1 ovarian,28.5 µM
same,TGI,K-562 leukemia,> 82 µM
same,TGI,KM12 colon,> 100 µM
same,TGI,KM20L2 colon,70.3 µM
same,TGI,LOX IMVI melanoma,19.1 µM
same,TGI,LXFL 529 NSCLC,28.2 µM
same,TGI,M14 melanoma,22.7 µM
same,TGI,M19-MEL melanoma,3.23 µM
same,TGI,MALME-3M melanoma,16.4 µM
same,TGI,MOLT-4 leukemia,> 77.8 µM
same,TGI,NCI-H226 lung,29.5 µM
same,TGI,NCI-H23 lung,23.5 µM
same,TGI,NCI-H460 lung,16.8 µM
same,TGI,NCI-H522 lung,26.2 µM
same,TGI,OVCAR-3 ovarian,29.1 µM
same,TGI,OVCAR-4 ovarian,27.5 µM
same,TGI,OVCAR-5 ovarian,30.8 µM
same,TGI,OVCAR-8 ovarian,52.1 µM
same,TGI,RPMI-8226 leukemia,> 82 µM
same,TGI,RXF 393 renal,32.6 µM
same,TGI,RXF-631 renal,> 100 µM
same,TGI,SF-268 CNS,60.5 µM
same,TGI,SF-295 CNS,23.3 µM
same,TGI,SF-539 CNS,33.3 µM
same,TGI,SK-MEL-2 melanoma,11 µM
same,TGI,SK-MEL-28 melanoma,31.7 µM
same,TGI,SK-MEL-5 melanoma,5.8 µM
same,TGI,SK-OV-3 ovarian,> 88.9 µM
same,TGI,SN12C renal,24.3 µM
same,TGI,SNB-19 CNS,48.3 µM
same,TGI,SNB-75 CNS,36.2 µM
same,TGI,SNB-78 CNS,39.7 µM
same,TGI,SR leukemia,> 36.4 µM
same,TGI,SW-620 colon,33 µM
same,TGI,TK-10 renal,> 100 µM
same,TGI,U251 CNS,28.1 µM
same,TGI,UACC-257 melanoma,24.2 µM
same,TGI,UACC-62 melanoma,6.07 µM
same,TGI,UO-31 renal,40.5 µM
O=[N+]([O-])c1ccc(-c2ccc(/C=N/n3c(-c4ccc(Cl)cc4)n[nH]c3=S)o2)cc1,TGI,786-0 renal,46.2 µM
same,TGI,A498 renal,> 100 µM
same,TGI,A549 NSCLC,> 64.6 µM
same,TGI,ACHN renal,> 60.8 µM
same,TGI,CAKI-1 renal,> 90.1 µM
same,TGI,CCRF-CEM leukemia,> 100 µM
same,TGI,COLO 205 colon,> 75.5 µM
same,TGI,DLD-1 colon,> 100 µM
same,TGI,DMS 114 small cell lung,> 100 µM
same,TGI,DMS 273 small cell lung,> 63.3 µM
same,TGI,EKVX NSCLC,> 100 µM
same,TGI,HCC-2998 colon,> 100 µM
same,TGI,HCT-116 colon,43.6 µM
same,TGI,HCT-15 colon,> 100 µM
same,TGI,HL-60(TB) leukemia,> 100 µM
same,TGI,HOP-18 NSCLC,> 100 µM
same,TGI,HOP-62 NSCLC,> 52.9 µM
same,TGI,HOP-92 NSCLC,> 94.3 µM
same,TGI,HT29 colon,> 55.2 µM
same,TGI,IGROV1 ovarian,> 100 µM
same,TGI,K-562 leukemia,> 31.6 µM
same,TGI,KM12 colon,61.4 µM
same,TGI,KM20L2 colon,> 65.8 µM
same,TGI,LOX IMVI melanoma,> 100 µM
same,TGI,LXFL 529 NSCLC,> 71.1 µM
same,TGI,M14 melanoma,32.3 µM
same,TGI,M19-MEL melanoma,> 55.8 µM
same,TGI,MALME-3M melanoma,43.1 µM
same,TGI,MOLT-4 leukemia,> 100 µM
same,TGI,NCI-H226 lung,> 58.5 µM
same,TGI,NCI-H23 lung,> 56.6 µM
same,TGI,NCI-H460 lung,> 54.7 µM
same,TGI,NCI-H522 lung,> 100 µM
same,TGI,OVCAR-3 ovarian,> 66.8 µM
same,TGI,OVCAR-4 ovarian,> 61.8 µM
same,TGI,OVCAR-5 ovarian,> 100 µM
same,TGI,OVCAR-8 ovarian,> 100 µM
same,TGI,RPMI-8226 leukemia,> 31.6 µM
same,TGI,RXF-631 renal,> 55.5 µM
same,TGI,SF-268 CNS,> 100 µM
same,TGI,SF-295 CNS,> 64 µM
same,TGI,SF-539 CNS,> 62.7 µM
same,TGI,SK-MEL-2 melanoma,> 100 µM
same,TGI,SK-MEL-28 melanoma,34 µM
same,TGI,SK-MEL-5 melanoma,49.8 µM
same,TGI,SK-OV-3 ovarian,> 100 µM
same,TGI,SN12C renal,> 100 µM
same,TGI,SNB-19 CNS,> 72.7 µM
same,TGI,SNB-75 CNS,> 83.1 µM
same,TGI,SNB-78 CNS,> 70.3 µM
same,TGI,SR leukemia,> 83.6 µM
same,TGI,SW-620 colon,> 68.5 µM
same,TGI,TK-10 renal,> 64.7 µM
same,TGI,U251 CNS,> 53.7 µM
same,TGI,UACC-257 melanoma,> 100 µM
same,TGI,UACC-62 melanoma,> 100 µM
same,TGI,UO-31 renal,> 100 µM
same,TGI,XF 498 CNS,46.6 µM
O=S(=O)(O)CS(=O)(=O)OCCCl,TGI,786-0 renal,> 100 µM
same,TGI,A498 renal,> 100 µM
same,TGI,A549 NSCLC,> 100 µM
same,TGI,ACHN renal,> 100 µM
same,TGI,CAKI-1 renal,> 100 µM
same,TGI,COLO 205 colon,> 100 µM
same,TGI,DLD-1 colon,> 100 µM
same,TGI,DMS 114 small cell lung,> 100 µM
same,TGI,DMS 273 small cell lung,> 100 µM
same,TGI,EKVX NSCLC,> 100 µM
same,TGI,HCC-2998 colon,> 100 µM
same,TGI,HCT-116 colon,> 100 µM
same,TGI,HL-60(TB) leukemia,> 100 µM
same,TGI,HOP-18 NSCLC,> 100 µM
same,TGI,HOP-62 NSCLC,> 100 µM
same,TGI,HOP-92 NSCLC,> 100 µM
same,TGI,HT29 colon,> 100 µM
same,TGI,IGROV1 ovarian,> 100 µM
same,TGI,K-562 leukemia,> 100 µM
same,TGI,KM12 colon,> 100 µM
same,TGI,KM20L2 colon,> 100 µM
same,TGI,LOX IMVI melanoma,> 100 µM
same,TGI,LXFL 529 NSCLC,> 100 µM
same,TGI,M14 melanoma,> 100 µM
same,TGI,M19-MEL melanoma,> 100 µM
same,TGI,MALME-3M melanoma,> 100 µM
same,TGI,MOLT-4 leukemia,> 100 µM
same,TGI,NCI-H226 lung,> 100 µM
same,TGI,NCI-H23 lung,> 100 µM
same,TGI,NCI-H460 lung,> 100 µM
same,TGI,NCI-H522 lung,> 100 µM
same,TGI,OVCAR-3 ovarian,> 100 µM
same,TGI,OVCAR-4 ovarian,> 100 µM
same,TGI,OVCAR-5 ovarian,> 100 µM
same,TGI,OVCAR-8 ovarian,> 100 µM
same,TGI,RPMI-8226 leukemia,> 100 µM
same,TGI,RXF 393 renal,> 100 µM
same,TGI,RXF-631 renal,> 100 µM
same,TGI,SF-268 CNS,> 100 µM
same,TGI,SF-295 CNS,> 100 µM
same,TGI,SF-539 CNS,> 100 µM
same,TGI,SK-MEL-28 melanoma,> 100 µM
same,TGI,SK-MEL-5 melanoma,> 100 µM
same,TGI,SK-OV-3 ovarian,> 100 µM
same,TGI,SN12C renal,> 100 µM
same,TGI,SNB-19 CNS,> 100 µM
same,TGI,SNB-75 CNS,> 100 µM
same,TGI,SNB-78 CNS,> 100 µM
same,TGI,SR leukemia,> 100 µM
same,TGI,SW-620 colon,> 100 µM
same,TGI,TK-10 renal,> 100 µM
same,TGI,U251 CNS,> 100 µM
same,TGI,UACC-257 melanoma,> 100 µM
same,TGI,UACC-62 melanoma,> 100 µM
same,TGI,UO-31 renal,> 100 µM
same,TGI,XF 498 CNS,> 100 µM
